Tests used:
[1] = Loading of vitamin D3 in ovine milk fat globules; format: physicochemical; conditions: for EE %, 1% v/v ethanol / EE %, 10% v/v ethanol / LY, 1% v/v ethanol / LY, 10% v/v ethanol: Ovine MFGs, 30 minutes
Description: Raw milk was diluted with Milli-Q water at 9:1 water to milk. Cream was separated from diluted milk via centrifugation at 3,000×g for 5 min. Cream was collected and reconstituted in water at 4% w/v concentration. The mixture was then further centrifuged at 3,000×g for 5 min. The cream was then collected and reconstituted to desired weight/volume in water (20% w/v in water).
Encapsulation of VD3 was achieved by incubation of compound's ethanolic solution with 20% w/v cream suspended in water. Once well mixed by gently inverting the tube, the contents were allowed to incubate in the dark. […] Significant values were reported with a 95% confidence interval, i.e. p<0.05.
At the end of the incubation period with VD3, cream was separated by centrifuging the suspension at 3,000×g for 5 min Cream was skimmed off the top with particular care not to include any of the aqueous phase. Methanol was added at 50 mg/mL and vortexed vigorously for 1 min. The mixture was then centrifuged at 3,000×g for 30 min. Liquid phase was collected and absorbance was measured at 264 nm. Absorbance blank was prepared fresh during every encapsulation run by introducing ethanol to cream suspended in water. Absorbance of the blank was subtracted from test samples to remove the absorbance of solvent, lipids, and other MFGs components. All experiments were conducted in triplicates.
Fat content in cream was measured to calculate the loading yield. The fat was isolated using the same set of preparation steps detailed in Example 13 with the addition of the last centrifugation step to recover cream after at the end of the loading process. The total fat content was determined using a modified Folch method (Folch, Lees, & Sloane-Stanley, 1957) where an additional step of washing the chloroform/water interface with 1:1 water/methanol solution was added to remove milk serum components. The loading yield of VD3 in milk fat was calculated as follows: […]
where CE is the VD3 extracted from MFGs (μg), and MF is the mass of milk fat (g) in MFGs suspension. The extraction procedure was conducted in triplicates using independent milk samples.

[2] = Gastric stability of vitamin D3 in simulated gastric fluid (LC-MS); format: in vitro ADME; conditions: 2 h, 37° C., pH 3, pepsin
Description: Degradation of VD3 under the simulated gastric conditions was performed on free VD3 and encapsulated VD3. The simulated gastric fluid (SGF) was prepared according to the method of Minekus et al. (2014). In summary, electrolyte solution was prepared in Milli-Q water at 1.25× of the final concentration and stored at 37° C. To prepare 10 mL solution to be used in the digestion procedure: 7.5 mL SGF, 6 mg pepsin solubilized in 1.6 mL SGF, 5 μL of 0.3 M CaCl2(H2O)2 prepared in water and filtered through a 0.22 μm PSE syringe filter. The pH value was corrected to reach 3, and if needed, water was added to reach 10mL (approximately […]). The solution was then placed in a 37° C. incubator to equilibrate. Cream separated at the end of the incubation period with VD3 was suspended in water at 8% w/v and allowed to briefly incubate at 37° C.
The separated cream (250 mg) containing VD3, obtained as described before, was added to 5 mL of SGF. For the digestion of free VD3 in methanol, 25 μL of 40 mg/mL solution was added to […] of SGF. Solutions were briefly purged with nitrogen and sealed securely. Simulated digestion was carried for 2h at 37° C. At the end of the incubation step, ethanolic pyrogallol solution (10 mL, 1% w/v) was added and vortexed vigorously. Potassium hydroxide (2 mL, 50%w/v) was then added and mixed. […]

Description for physchem: One such molecular property that is used to predict partitioning potential is the octanol—water partition coefficient; Log P, which is the logarithm of the ratio of the solute concentration in the octanol phase to the solute concentration in the water phase, at a defined temperature.

With C=C1CC[C@H](O)C/C1=C/C=C1\CCC[C@]2(C)[C@@H]([C@H](C)CCCC(C)C)CC[C@@H]12 [Cholecalciferol] the “EE %, 1% v/v ethanol” value ([1]; 50 μM) was 11.75 ± 0.44%, the “EE %, 10% v/v ethanol” value ([1]; 50 μM) was 37.83 ± 10.36% and the “LY, 1% v/v ethanol” value ([1]; 50 μM) was 11.17 ± 0.41 μg of VD3 per gram of milk fat. For the same compound, the “LY, 10% v/v ethanol” value ([1]; 50 μM) was 35.95 ± 9.85 μg of VD3 per gram of milk fat, the “EE %, 1% v/v ethanol” value ([1]; 100 μM) was 10.70 ± 3.12% and the “EE %, 10% v/v ethanol” value ([1]; 100 μM) was 20.29 ± 4.85 %. The “LY, 1% v/v ethanol” value ([1]; 100 μM) was 20.35 ± 5.93 μg of VD3 per gram of milk fat, the “LY, 10% v/v ethanol” value ([1]; 100 μM) was 38.56 ± 9.23 μg of VD3 per gram of milk fat and the “EE %, 1% v/v ethanol” value ([1]; 150 μM) was 10.17 ± 0.67%. The “EE %, 10% v/v ethanol” value ([1]; 150 μM) was 18.95 ± 6.34 %, the “LY, 1% v/v ethanol” value ([1]; 150 μM) was 29.01 ± 1.92 μg of VD3 per gram of milk fat and the “LY, 10% v/v ethanol” value ([1]; 150 μM) was 54.03 ± 18.08 μg of VD3 per gram of milk fat. For the same compound, the “EE %, 1% v/v ethanol” value ([1]; 200 μM) was 8.49 ± 1.65%, the “EE %, 10% v/v ethanol” value ([1]; 200 μM) was 14.30 ± 3.90 % and the “LY, 1% v/v ethanol” value ([1]; 200 μM) was 32.28 ± 6.26 μg of VD3 per gram of milk fat. The “LY, 10% v/v ethanol” value ([1]; 200 μM) was 54.33 ± 14.83 μg of VD3 per gram of milk fat, the “EE %, 1% v/v ethanol” value ([1]; 250 μM) was 8.13 ± 1.27% and the “EE %, 10% v/v ethanol” value ([1]; 250 μM) was 10.31 ± 1.14 %. For the same compound, the “LY, 1% v/v ethanol” value ([1]; 250 μM) was 38.62 ± 6.06 μg of VD3 per gram of milk fat, the “LY, 10% v/v ethanol” value ([1]; 250 μM) was 49.00 ± 5.43 μg of VD3 per gram of milk fat and the “VD3 loaded into MFGs (up to)” value ([1]; ovine MFGs) was ≤ 54 μg/g milk fat. The “degradation/loss of VD3 in simulated gastric fluid” value ([2]; listed as free VD3) was “approximately 6%”, the “degradation/loss of VD3 in simulated gastric fluid” value ([2]; listed as un-encapsulated VD3) was “approximately 8%” and the logP (physchem) was ~7.5.

Source: US20220175675A1, “ENCAPSULATING MOLECULES IN FAT GLOBULES” (The Regents of the University of California, priority 2019, published 2022)
